In US20070141568A1, “Method for determining the presence of one or more ligands in a sample” (BioDetection Systems B.V., priority 2002, published 2007):
Like-named read-outs stand apart in the source and are kept apart here.

Experiments:
[1] = molecular target: T1, ER-alpha (Homo sapiens, UniProt P03372); assay: U2-OS ER-alpha luciferase reporter cell line; format: cell-based
T1 construct: expressed in transfected cells
T1 sequence (P03372 1-595): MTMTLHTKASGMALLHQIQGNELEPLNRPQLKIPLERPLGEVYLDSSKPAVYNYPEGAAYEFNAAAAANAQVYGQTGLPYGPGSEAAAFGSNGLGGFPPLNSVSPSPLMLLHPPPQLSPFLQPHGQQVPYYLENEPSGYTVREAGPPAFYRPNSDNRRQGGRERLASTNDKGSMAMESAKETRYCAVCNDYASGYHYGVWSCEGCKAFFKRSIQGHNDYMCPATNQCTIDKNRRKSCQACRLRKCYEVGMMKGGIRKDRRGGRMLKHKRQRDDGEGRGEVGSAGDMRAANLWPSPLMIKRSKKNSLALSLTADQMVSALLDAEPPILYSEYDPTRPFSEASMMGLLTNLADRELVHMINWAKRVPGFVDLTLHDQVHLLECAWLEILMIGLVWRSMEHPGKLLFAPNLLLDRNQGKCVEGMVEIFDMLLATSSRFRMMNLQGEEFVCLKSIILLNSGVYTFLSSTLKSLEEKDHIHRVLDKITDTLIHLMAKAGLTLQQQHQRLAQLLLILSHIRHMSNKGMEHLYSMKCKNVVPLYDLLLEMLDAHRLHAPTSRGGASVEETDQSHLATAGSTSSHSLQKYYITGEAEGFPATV

[2] = molecular target: T2, progesterone receptor (PR) (Homo sapiens, UniProt P06401); assay: U2-OS PR cell line (pSG5-hPR, 3×HRE-TATA-Luc reporter); format: cell-based
T2 construct: expressed in transfected cells; host or cells: human U2-OS cells, stably transfected with pSG5-hPR
T2 sequence (P06401 1-933): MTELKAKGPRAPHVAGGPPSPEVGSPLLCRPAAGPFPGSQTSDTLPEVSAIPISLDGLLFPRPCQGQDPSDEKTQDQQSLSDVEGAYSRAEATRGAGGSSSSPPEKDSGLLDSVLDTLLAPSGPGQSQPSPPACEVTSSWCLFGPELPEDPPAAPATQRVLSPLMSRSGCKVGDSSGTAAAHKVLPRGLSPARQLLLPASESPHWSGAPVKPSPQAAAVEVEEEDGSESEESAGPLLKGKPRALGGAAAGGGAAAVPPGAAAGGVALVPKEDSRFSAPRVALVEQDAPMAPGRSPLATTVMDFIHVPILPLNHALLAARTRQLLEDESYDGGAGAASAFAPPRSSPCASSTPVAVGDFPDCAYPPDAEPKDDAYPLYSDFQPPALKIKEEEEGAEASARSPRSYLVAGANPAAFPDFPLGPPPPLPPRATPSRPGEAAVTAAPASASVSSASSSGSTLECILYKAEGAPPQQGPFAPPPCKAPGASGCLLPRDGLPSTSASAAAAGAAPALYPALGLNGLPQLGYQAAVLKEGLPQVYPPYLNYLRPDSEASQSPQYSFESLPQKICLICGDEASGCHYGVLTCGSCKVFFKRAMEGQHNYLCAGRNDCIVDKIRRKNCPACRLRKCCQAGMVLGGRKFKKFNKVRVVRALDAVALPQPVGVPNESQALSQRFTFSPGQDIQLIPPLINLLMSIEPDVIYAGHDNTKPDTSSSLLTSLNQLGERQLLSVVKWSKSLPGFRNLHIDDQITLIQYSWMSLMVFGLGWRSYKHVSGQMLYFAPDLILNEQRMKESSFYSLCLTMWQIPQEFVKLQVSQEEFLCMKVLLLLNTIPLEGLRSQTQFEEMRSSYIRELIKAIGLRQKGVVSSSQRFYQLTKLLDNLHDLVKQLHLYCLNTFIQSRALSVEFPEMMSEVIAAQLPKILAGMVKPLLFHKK
Source text: Reporter constructs were made using specific synthetic multimerized hormone responsive elements which were cloned upstream of the synthetic TATA box in the pGL3-TATA-Luc vector. Stable transfected cell lines were made, when necessary co-transfected with a specific receptor-containing expression plasmid pSG5.
The reporter construct comprises 3 tandem repeats of the hormone responsive element (HRE) oligonucleotide:
upstream of the minimal adenovirus E1B TATA promotor sequence ([…]) inserted in the multiple cloning site of the luciferase reporter construct pGL3 (as described in Legler et al., supra).
In order to determine the responsiveness of the U2-OS based steroid reporter cell lines, cells were plated in 96-wells plates and treated for 24 hours with hormone in the culture medium containing 5% charcoal-stripped serum.
The PR cell line was generated by stably transfecting the human U2-OS cell line with pSG5-hPR and the 3×HRE-TATA-Luc reporter constructs.

SMILES	EC50 [1] [µM]	EC50 [2] [µM]	other results
C[C@]12CC[C@H]3[C@@H](CCC4=CC(=O)CC[C@@H]43)[C@@H]1CC[C@@H]2O [Nandrolone]	0.0398	0.00501	–
C[C@]12CCC(=O)C[C@@H]1CC[C@@H]1[C@@H]2CC[C@]2(C)[C@@H](O)CC[C@@H]12 [dihydro-testosterone, 5α-dihydro-testosterone]	–	3.98	–
C[C@]12CC[C@H]3[C@@H](CCC4=CC(=O)CC[C@@]43C)[C@@H]1CC[C@@H]2O [testosterone]	–	7.94	–
C[C@]1(O)CC[C@H]2[C@@H]3CCC4=CC(=O)CCC4=C3C=C[C@@]21C [R1881]	> 10	–	–
C[C@@H]1C[C@H]2[C@@H]3CCC4=CC(=O)C=C[C@]4(C)[C@@]3(F)[C@@H](O)C[C@]2(C)[C@@]1(O)C(=O)CO [Dexamethasone]	–	–	EC50 ([2]; logEC50, U2-OS reporter cell line, 24 hours with hormone, 5% charcoal-stripped serum, read-out: potency (logEC50) PR (converted)): > 10 µM
C[C@]12CCC(=O)C=C1CC[C@@H]1[C@@H]2CC[C@]2(C)C(=O)CC[C@@H]12 [androstenedione]	> 10	–	–
C[C@]12CC[C@H](O)CC1=CC[C@@H]1[C@@H]2CC[C@]2(C)C(=O)CC[C@@H]12 [DHEA]	–	–	potency (logEC50) PR ([2]; logEC50, U2-OS reporter cell line, 24 hours with hormone, 5% charcoal-stripped serum): >−5.0
